ChEMBL document CHEMBL5537202, “Perspectives on Nuclear Magnetic Resonance Spectroscopy in Drug Discovery Research” (J Med Chem, 2024)
Values belong to the compound of their own block, whether it stands above or below them. Where a SMILES comes first, the peptide text is derived from it. Bridges are numbered along the chain shown (N, C = ends). [ ]: non-standard residue; d: D form. Trp(1-CH2COOH) = N[C@@H](Cc1cn(CC(=O)O)c2ccccc12)C(=O)O; Hyp = O=C(O)[C@@H]1C[C@@H](O)CN1; NMeNle = CCCC[C@H](NC)C(=O)O; NMeA = CN[C@@H](C)C(=O)O; Dab = NCC[C@H](N)C(=O)O; Dap = NC[C@H](N)C(=O)O; Sar = CNCC(=O)O

Key:
[1] = Binding affinity to Hsp90 (unknown origin) assessed as dissociation constant; set-up: species or system Homo sapiens
[2] = target: T1, Programmed cell death protein 1/Programmed cell death 1 ligand 1 (Homo sapiens, UniProt Q15116+Q9NZQ7); experiment: Inhibition of PD-1/PD-L1 (unknown origin) protein-protein interaction incubated for 1 hr by HTRF assay; format: protein-complex assay
T1 sequence (Q15116 whole entry): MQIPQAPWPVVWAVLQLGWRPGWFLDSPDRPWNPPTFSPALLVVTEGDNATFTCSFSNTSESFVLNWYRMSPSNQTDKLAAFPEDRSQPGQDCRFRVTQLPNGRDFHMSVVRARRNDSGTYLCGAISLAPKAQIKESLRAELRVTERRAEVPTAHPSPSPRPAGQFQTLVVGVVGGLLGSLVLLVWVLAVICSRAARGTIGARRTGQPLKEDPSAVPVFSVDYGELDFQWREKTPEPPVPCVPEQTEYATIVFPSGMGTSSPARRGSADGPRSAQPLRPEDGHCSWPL
T1 sequence (Q9NZQ7 whole entry): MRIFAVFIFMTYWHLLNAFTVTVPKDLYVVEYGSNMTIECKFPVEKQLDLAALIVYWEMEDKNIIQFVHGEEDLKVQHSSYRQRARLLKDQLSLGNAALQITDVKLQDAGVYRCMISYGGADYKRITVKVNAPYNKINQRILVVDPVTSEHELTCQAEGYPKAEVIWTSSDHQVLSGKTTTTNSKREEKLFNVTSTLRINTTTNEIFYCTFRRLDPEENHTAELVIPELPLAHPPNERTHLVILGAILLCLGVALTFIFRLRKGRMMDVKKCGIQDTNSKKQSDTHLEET

[3] = target: T1, Programmed cell death protein 1/Programmed cell death 1 ligand 1; experiment: Inhibition of PD-1/PD-L1 (unknown origin) interaction expressed in human HEK293T cells by HTRF analysis; format: cell-based
[4] = Binding affinity to human recombinant Hsp90 expressed in Escherichia coli BL21 (DE3) cells assessed as dissociation constant
[5] = Oral bioavailability in monkey at 5 mg/kg; format: ADME, organism-based, Macaca mulatta; conditions: rhesus monkey, in vivo
[6] = Oral bioavailability in mouse at 2 mg/kg; format: ADME, organism-based; conditions: in vivo
[7] = Oral bioavailability in Beagle dog at 2 mg/kg; format: ADME, organism-based, Canis lupus familiaris; conditions: in vivo
[8] = Oral bioavailability in rat at 2 mg/kg by LC-MS/MS analysis; format: ADME, organism-based; conditions: in vivo
[9] = Binding affinity to Hsp90 (unknown origin) expressed in Escherichia coli BL21 (DE3) cells assessed as inhibition constant by NMR STD analysis; set-up: species or system Homo sapiens
[10] = Binding affinity to human Hsp90 expressed in Escherichia coli BL21 (DE3) cells assessed as inhibition constant
[11] = target: T1, Programmed cell death protein 1/Programmed cell death 1 ligand 1; experiment: Inhibition of PD-1/PD-L1 (unknown origin) protein-protein interaction expressed in HEK293 cells by HTRF method; format: cell-based
[12] = target: Stimulator of interferon genes protein (Homo sapiens, UniProt Q86WV6); experiment: Binding affinity to N-terminal His-tagged wild type human STING CTD ([…]) expressed in Escherichia coli BL21 (DE3) cells assessed as dissociation constant by NMR analysis
Chain of Stimulator of interferon genes protein (Q86WV6 whole entry): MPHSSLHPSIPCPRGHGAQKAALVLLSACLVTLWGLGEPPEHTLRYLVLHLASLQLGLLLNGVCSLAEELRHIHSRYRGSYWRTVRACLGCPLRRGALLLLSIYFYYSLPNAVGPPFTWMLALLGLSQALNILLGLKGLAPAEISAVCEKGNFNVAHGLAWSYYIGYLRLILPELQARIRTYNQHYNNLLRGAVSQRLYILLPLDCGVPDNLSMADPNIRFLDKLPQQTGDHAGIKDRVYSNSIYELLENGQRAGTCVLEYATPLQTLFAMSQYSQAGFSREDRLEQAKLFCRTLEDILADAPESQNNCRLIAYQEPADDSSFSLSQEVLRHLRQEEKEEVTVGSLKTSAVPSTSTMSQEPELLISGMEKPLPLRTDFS

Kd [1]: 177 µM
Structure (SMILES): Cc1cccc(C2c3[nH]c4ccccc4c3CC3C(=O)N(c4ccccc4C(=O)O)C(=O)N32)c1 (stereo not given)

Structure (SMILES): CCCC[C@H]1C(=O)N(C)[C@@H](CCCC)C(=O)N[C@@H](CCCNC(=N)N)C(=O)N[C@H](C(=O)NCC(N)=O)CSCC(=O)N[C@@H](Cc2ccccc2)C(=O)N(C)[C@@H](C)C(=O)N[C@@H](CC(N)=O)C(=O)N2CCC[C@H]2C(=O)N[C@@H](Cc2c[nH]cn2)C(=O)N[C@@H](CC(C)C)C(=O)N(C)CC(=O)N[C@@H](Cc2c[nH]c3ccccc23)C(=O)N[C@@H](CO)C(=O)N[C@@H](Cc2c[nH]c3ccccc23)C(=O)N1C ({CH2CO}-F[NMeA]NPHL[Sar]WSW[NMeNle][NMeNle]RCG-NH2; thioether N-14)
IC50 [2]: 0.009 µM | IC50 [3]: 0.06 µM

Structure (SMILES): O=C(O)c1ccc(-c2ccc(F)cc2)cc1
Kd [4]: 300 µM

bioavailability [5]: 8% | bioavailability [6]: 29.7% | bioavailability [7]: 29.7% | bioavailability [8]: 29.7%
Structure (SMILES): COc1cccc(Nc2ncnn3ccc(CN4CC[C@@H](N)[C@@H](O)C4)c23)c1

Structure (SMILES): O=C(NS(=O)(=O)c1ccc(NCCSc2ccccc2)c([N+](=O)[O-])c1)c1ccc(-c2ccc(F)cc2)cc1
Ki [9]: 0.036 µM

Structure (SMILES): Oc1cccc2c1CCCC2
Kd [4]: 4300 µM

Structure (SMILES): Oc1ccc(-c2ccccc2)cc1
Kd [4]: 6000 µM

Structure (SMILES): O=C(O)c1ccc(-c2ccc(F)cc2)cc1/C=C/c1cccc(-c2ccccc2)c1
Ki [9]: 1.4 µM

Structure (SMILES): CN(C)CC[C@H](CSc1ccccc1)Nc1ccc(S(=O)(=O)NC(=O)c2ccc(N3CCN(Cc4ccccc4-c4ccc(Cl)cc4)CC3)cc2)cc1[N+](=O)[O-] [ABT 737]
Ki [10]: < 0.001 µM

Structure (SMILES): CCCC[C@H]1C(=O)N(C)[C@@H](CCCC)C(=O)N[C@@H](CC(C)C)C(=O)N[C@H](C(=O)NCC(N)=O)CSCC(=O)N[C@@H](Cc2ccc(O)cc2)C(=O)N(C)[C@@H](C)C(=O)N[C@@H](CC(N)=O)C(=O)N2CCC[C@H]2C(=O)N[C@@H](CN)C(=O)N[C@@H](CC(C)C)C(=O)N2C[C@H](O)C[C@H]2C(=O)N[C@@H](Cc2c[nH]c3ccccc23)C(=O)N[C@@H](CCN)C(=O)N[C@@H](Cc2cn(CC(=O)O)c3ccccc23)C(=O)N1C ({CH2CO}-Y[NMeA]NP[Dap]L[Hyp]W[Dab][Trp(1-CH2COOH)][NMeNle][NMeNle]LCG-NH2; thioether N-14)
IC50 [11]: 0.00027 µM

Kd [12]: 18 µM
Structure (SMILES): COc1cc2cc(C(=O)CCC(=O)O)sc2cc1OC
